Assays:
enterovirus = assay: virological efficacy: EV culture and PCR in neonates with suspected enterovirus sepsis, placebo-controlled study; type: in vivo, human
Description: (§1) Sixty-one subjects were enrolled; 43 randomized to the treatment group and 18 to the placebo group (FIG. 1). Of these, 43 (70%) were confirmed EV-positive: 31 in the treatment group and 12 in the placebo group. The study was terminated prior to full accrual due to expiration of study drug. […] 8/18 (44%) in the placebo group and lost-to-follow-up in 9/43 (21%) subjects in the treatment group v. 1/18 (6%) in the placebo group. Neonates with suspected EV sepsis (hepatitis, coagulopathy, and/or myocarditis) were enrolled at 19 centers from June 1999-December 2010.
(§2) A 2:1 study drug: placebo randomization with randomly permuted block sizes was used. Randomization codes were accessible only to biostatistical personnel at the coordinating center. Subjects initially received 5.0 mg/kg/dose of a 40 mg/mL liquid formulation of pleconaril (ViroPharma, Inc.; Exton, PA) or matching placebo identical in composition except lacking active study drug. The liquid formulation expired on May 31, 2002, after which the formulation was changed by the manufacturer to a 40 mg/mL suspension. Subjects received 8.5 mg/kg/dose of pleconaril suspension (shown to provide similar drug exposure as 5.0 mg/kg/dose of pleconaril liquid) or matching placebo. Both pleconaril formulations and matching placebos were administered every 8 hours×7 days in 1.0 mL of breast milk or formula by mouth or orogastric tube and were given to subjects who were otherwise NPO. Subjects were permitted to receive antibiotics, acyclovir, cardiotropic medications, and IVIG. Subjects for whom an etiology for illness other than EV infection was documented after enrollment had study drug/placebo discontinued.
(§3) A target sample size of 45 subjects with confirmed EV disease, with an expectation that approximately 67% of enrolled subjects would be confirmed to be EV-infected, was chosen to provide sufficient power to detect a reduction in viral shedding from the oropharynx from 96% to 70% on day 5. EV-confirmed subjects (culture- or PCR-positive) were included in virologic and clinical efficacy analyses, all enrolled subjects were included in safety analyses, and pleconaril recipients for whom pharmacokinetic data were obtained (whether or not EV-infected) were included in pharmacokinetic analyses. Survival analyses were conducted on the total enrolled cohort and on EV-confirmed subjects.
(§4) Fisher's Exact Test was utilized for comparisons of categorical factors and the Kruskal-Wallis and Mann Whitney Tests for continuous factors, with medians and ranges presented. Kaplan-Meier curves and log-rank statistics were utilized to assess differences in duration of culture and PCR positivity and survival between study groups. Changes in toxicity grades from baseline and adverse event rates were compared by chi-square tests.
Specimens for EV culture and polymerase chain reaction (PCR) were obtained from the oropharynx, rectum, urine, and serum on days 1-5, 7, 10, and 14. Plasma for pharmacokinetic analysis was obtained on day 1 (2, 4, and 8 hours after study drug administration) and days 3 and 7 (prior to and 2 and 4 hours after administration). Hematology and chemistry tests were obtained on study days 1, 3, 5, 7, 10, and 14 and urinalyses on days 1 and 7. Persisting abnormalities were followed at visits at 2, 6, 12, 18, and 24 months. Adverse events were recorded at each evaluation, and relationship to study treatment was determined by site investigators.
The primary endpoint was the percentage of patients with a positive viral culture from the oropharynx five days after beginning study drug. Secondary endpoints included duration of culture positivity from oropharynx, rectum, urine and serum; changes in laboratory values reflecting resolution or progression of EV disease or drug toxicity; duration of hospitalization; time to resolution of organ abnormalities; survival; and pleconaril pharmacokinetics. […]

[1] = safety analysis: adverse events in enrolled neonates; type: in vivo, human
Method: as §2, with “discontinued. […]” for “discontinued.”
(§5) Specimens for EV culture and polymerase chain reaction (PCR) were obtained from the oropharynx, rectum, urine, and serum on days 1-5, 7, 10, and 14. […] Adverse events were recorded at each evaluation, and relationship to study treatment was determined by site investigators.

[2] = plasma pharmacokinetics in neonates; type: in vivo, human; conditions: on D1
Method: as §2, with “discontinued. […]” for “discontinued.”
as §5

[3] = tested on: human respiratory picornavirus; conditions: nasal thixotropic formulation, 12 mg per day nasal spray v. 400 mg oral dose; cited from earlier work
[4] = 25° C.; cited from earlier work
[5] = tested on: neonatal enterovirus infections; assay: clinical efficacy: survival of neonates with suspected enterovirus sepsis, placebo-controlled study; type: in vivo, human
Description: as §1, §2, §3, §4
The primary endpoint was the percentage of patients with a positive viral culture from the oropharynx five days after beginning study drug. Secondary endpoints included duration of culture positivity from oropharynx, rectum, urine and serum; changes in laboratory values reflecting resolution or progression of EV disease or drug toxicity; duration of hospitalization; time to resolution of organ abnormalities; survival; and pleconaril pharmacokinetics. Tertiary endpoints included duration of blood product (fresh frozen plasma, packed red blood cells, platelets, other products) and inotropic support.

CYP 3A = conditions: oral delivery at 200-400 mg dose level; cited from earlier work

Cc1cc(CCCOc2c(C)cc(-c3noc(C(F)(F)F)n3)cc2C)on1 [Pleconaril, 3-{3,5-dimethyl-4-[3-(3-methylisoxazol-5-yl)propoxy]phenyl}-5-(trifluoromethyl)-1,2,4-oxadiazole]
EV-confirmed subjects culture-positive from the oropharynx (enterovirus; day 1, treatment group, 6 of 24): 25% | subjects shedding cultivable virus from the oropharynx (enterovirus; day 5 (primary endpoint)): no subjects | persistence of PCR positivity from OP, compared with placebo (enterovirus; oropharynx, pleconaril group v. placebo): shorter | time to culture negativity of all sites combined, compared with placebo (enterovirus; pleconaril group v. placebo): shorter | median time to culture-negativity from all sites among culture-positive subjects (enterovirus; treatment group (19 subjects) v. 7.0 days placebo, p=0.08): 4.0 days | median time to sustained culture-negativity, urine (enterovirus; treatment group v. 7.0 days placebo, p=0.05): 4.0 days | median time to sustained oropharyngeal culture negativity (enterovirus; treatment group, placebo also 3.0): 3.0 days | subjects with adverse events whose events were judged possibly/probably treatment-related ([1]; treatment group v. 18% placebo): 3% | enrolled subjects who experienced adverse events ([1]; treatment group v. 94% placebo): Eighty-six | share with concentrations below IC90 [2]: 41% | clinical/antiviral effect of nasal spray compared with oral dose [3]: roughly similar clinical/antiviral effect | solubility in water [4]: < 0.02 µg/mL | cumulative survival v. placebo, EV-confirmed subjects ([5]; over two months): trends in cumulative survival favoring the treatment group | cumulative survival over two months v. placebo, all enrolled subjects ([5]; p=0.02): greater | cumulative survival over 18 months v. placebo ([5]; p=0.07 among all subjects, p=0.23 among EV-confirmed subjects): continued to exceed | subjects who died, EV-confirmed subjects ([5]; treatment group 7/31 v. placebo 5/12 (42%)): 23% | subjects who died, all enrolled subjects ([5]; treatment group 10/43 v. placebo 8/18 (44%)): 23% | induction of CYP 3A (side effect) (CYP 3A): induction of CYP 3A
